Measured values reported in paper doi:10.1101/850305v1 (biorxiv, 2019).
Values after ≈ are worked out from the molar mass of the structure shown. Where two headings read alike, the source gives them in different places. Blank lines part the entries; values can stand above or below the molecule they belong to.

What was measured:
VECO2526 E. coli ΔtolC = assay: microbe, parasite or virus in culture; settings: Escherichia coli
CDY0154 E. coli Δ9efflux = assay: microbe, parasite or virus in culture; settings: Escherichia coli
E. coli LpxA [1] = molecular target: T1, E. coli LpxA (Escherichia coli, UniProt P0A722); assay: SPR; format: binding
T1 sequence (P0A722 1-262): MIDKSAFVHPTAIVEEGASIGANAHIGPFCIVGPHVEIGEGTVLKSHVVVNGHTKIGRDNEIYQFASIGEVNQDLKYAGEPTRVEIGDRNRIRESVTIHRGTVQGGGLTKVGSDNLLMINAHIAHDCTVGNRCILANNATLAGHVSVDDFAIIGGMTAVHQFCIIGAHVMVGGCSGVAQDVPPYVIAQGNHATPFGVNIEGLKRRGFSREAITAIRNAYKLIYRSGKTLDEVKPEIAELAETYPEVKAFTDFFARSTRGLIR

[2] = test system: ATCC 25922 E. coli clinical isolates; assay: microbe, parasite or virus in culture; settings: Escherichia coli
[3] = test system: Escherichia coli TUP0115 ΔtolC pLacZα; assay: microbe, parasite or virus in culture; settings: read-out: MIC
MG1655 E. coli K-12 = assay: microbe, parasite or virus in culture; settings: Escherichia coli
E. coli LpxA [4] = molecular target: T1, E. coli LpxA; assay: SPE-MS detection of LpxA product; format: biochemical
E. coli LpxA [5] = molecular target: T1, E. coli LpxA; assay: SPE-MS detection of LpxA product; format: biochemical; remark: listed apart in the source
E. coli LpxA [6] = molecular target: T1, E. coli LpxA; assay: SPR; format: binding; remark: listed apart in the source
E. coli LpxA [7] = molecular target: T1, E. coli LpxA; assay: SPE-MS detection of LpxA product; format: biochemical; remark: listed apart in the source

SMILES: C[C@@H](O)[C@H](NC(=O)c1ccc(C#Cc2ccc(CN3CCOCC3)cc2)cc1)C(=O)NO [CHIR-090]
MIC (VECO2526 E. coli ΔtolC; read-out: MIC CHIR-090): 0.015 µg/mL (≈ 0.0343 µM) | MIC (CDY0154 E. coli Δ9efflux; read-out: MIC CHIR-090): 0.075 µg/mL (≈ 0.171 µM)

SMILES: Cc1ccnc(-c2cc(C(=O)N3CCOC[C@H]3C(C)C)[nH]n2)c1 [compound 4]
IC50 (E. coli LpxA [4]): 148 µM

SMILES: Cc1ccnc(-c2cc(C(=O)N3CCOC[C@H]3Cc3ccccc3F)[nH]n2)c1 [compound 6]
IC50 (E. coli LpxA [7]): 3 µM

SMILES: COc1ccccc1C[C@@H]1COCCN1C(=O)c1cc(-c2cc(C)ccn2)n[nH]1 [compound 8]
IC50 (E. coli LpxA [7]): 11 µM

SMILES: COc1cccc(Cl)c1C[C@@H]1COCCN1C(=O)c1cc(-c2cc(C)ccn2)n[nH]1 [compound 11]
IC50 (E. coli LpxA [4]): 0.5 µM

SMILES: Cc1ccnc(-c2cc(C(=O)N3CCOC[C@@H]3Cc3ccccc3)[nH]n2)c1 [compound 12]
IC50 (E. coli LpxA [4]): 171 µM

SMILES: COc1cccc(Cl)c1C[C@@H]1COCCN1C(=O)c1cc(-c2cc(C)c(N)cn2)n[nH]1 [compound 13]
IC50 (E. coli LpxA [7]): 0.6 µM

Continued, values first:

Kd (E. coli LpxA [1]): 0.1 µM | MIC ([2]; ATCC25922, read-out: MIC compound 1): > 16 µg/mL | MIC (VECO2526 E. coli ΔtolC; read-out: MIC compound 1): 0.5 µg/mL (≈ 1.25 µM) | MIC [3]: 0.5 µg/mL (≈ 1.25 µM) | MIC (MG1655 E. coli K-12; MG1655, read-out: MIC compound 1): > 16 µg/mL | IC50 (E. coli LpxA [4]): 1.4 µM | MIC (CDY0154 E. coli Δ9efflux; read-out: MIC compound 1): 0.5 µg/mL (≈ 1.25 µM)
SMILES: COc1ccc(C(=O)CN2C(=O)NC(c3ccccc3)(c3ccccc3)C2=O)cc1 [compound 1]

MIC ([2]; ATCC25922, read-out: MIC compound 2): > 128 µg/mL | MIC (VECO2526 E. coli ΔtolC; read-out: MIC compound 2): 2 µg/mL (≈ 5.52 µM) | MIC (MG1655 E. coli K-12; MG1655, read-out: MIC compound 2): > 128 µg/mL | IC50 (E. coli LpxA [5]): 4.8 µM | Kd (E. coli LpxA [6]): 110 µM | MIC (CDY0154 E. coli Δ9efflux; read-out: MIC compound 2): 2 µg/mL (≈ 5.52 µM)
SMILES: Cc1ccnc(-c2cc(C(=O)N3CCOC[C@H]3Cc3ccccc3)[nH]n2)c1 [compound 2]

IC50 (E. coli LpxA [4]): > 250 µM
SMILES: Cc1ccnc(-c2cc(C(=O)N3CCOCC3)[nH]n2)c1 [compound 3]

IC50 (E. coli LpxA [4]): 86 µM
SMILES: Cc1ccnc(-c2cc(C(=O)N3CCOC[C@H]3Cc3ccccn3)[nH]n2)c1 [compound 5]

IC50 (E. coli LpxA [4]): 2.9 µM
SMILES: Cc1ccnc(-c2cc(C(=O)N3CCOC[C@H]3Cc3ccccc3Cl)[nH]n2)c1 [compound 7]

IC50 (E. coli LpxA [4]): 2.5 µM
SMILES: COc1cccc(F)c1C[C@@H]1COCCN1C(=O)c1cc(-c2cc(C)ccn2)n[nH]1 [compound 9]
